Test results reported in the kinase profiling compilation of Christmann-Franck et al. (2016).

What was measured:
Assay in all cases: radiometric filter-binding kinase assay
AURKA (human) = AURKA (human) (UniProt O14965)
BRSK2 (human) = BRSK2 (human) (UniProt Q8IWQ3)
CDK2 CCNA2 (human) = CDK2 CCNA2 (human) (UniProt P20248+P24941)
CHEK1 (human) = CHEK1 (human) (UniProt O14757)
CHEK2 (human) = CHEK2 (human) (UniProt O96017)
CLK2 (human) = CLK2 (human) (UniProt P49760)
DAPK1 (human) = DAPK1 (human) (UniProt P53355)
EEF2K (human) = EEF2K (human) (UniProt O00418)
EPHB4 (human) = EPHB4 (human) (UniProt P54760)
ERBB4 (human) = ERBB4 (human) (UniProt Q15303)
FLT1 (human) = FLT1 (human) (UniProt P17948)
GCK (human) = GCK (human) (UniProt Q12851)
HIPK1 (human) = HIPK1 (human) (UniProt Q86Z02)
HIPK3 (human) = HIPK3 (human) (UniProt Q9H422)
JAK2 JH1 JH2 (human) = JAK2 JH1 JH2 (human) (UniProt O60674)
MAP3K1 (human) = MAP3K1 (human) (UniProt Q13233)
MAP3K5 (human) = MAP3K5 (human) (UniProt Q99683)
MAPK1 (human) = MAPK1 (human) (UniProt P28482)
MAPK3 (human) = MAPK3 (human) (UniProt P27361)
MARK3 (human) = MARK3 (human) (UniProt P27448)
MARK4 (human) = MARK4 (human) (UniProt Q96L34)
MST4 (human) = MST4 (human) (UniProt Q9P289)
NTRK1 (human) = NTRK1 (human) (UniProt P04629)
NUAK1 (human) = NUAK1 (human) (UniProt O60285)
PAK6 (human) = PAK6 (human) (UniProt Q9NQU5)
PLK1 (human) = PLK1 (human) (UniProt P53350)
PRKCA (human) = PRKCA (human) (UniProt P17252)
PRKCZ (human) = PRKCZ (human) (UniProt Q05513)
RPS6KA1 KD1 KD2 (human) = RPS6KA1 KD1 KD2 (human) (UniProt Q15418)
RPS6KA3 KD1 KD2 (human) = RPS6KA3 KD1 KD2 (human) (UniProt P51812)
RPS6KA5 KD1 KD2 (human) = RPS6KA5 KD1 KD2 (human) (UniProt O75582)
[1] = tested on: SGK1 (human), O00141 [S422D]
SRC (human) = SRC (human) (UniProt P12931)
STK3 (human) = STK3 (human) (UniProt Q13188)
TAOK1 (human) = TAOK1 (human) (UniProt Q7L7X3)

Sequence of CHEK1 (human) (O14757 whole entry, looked up): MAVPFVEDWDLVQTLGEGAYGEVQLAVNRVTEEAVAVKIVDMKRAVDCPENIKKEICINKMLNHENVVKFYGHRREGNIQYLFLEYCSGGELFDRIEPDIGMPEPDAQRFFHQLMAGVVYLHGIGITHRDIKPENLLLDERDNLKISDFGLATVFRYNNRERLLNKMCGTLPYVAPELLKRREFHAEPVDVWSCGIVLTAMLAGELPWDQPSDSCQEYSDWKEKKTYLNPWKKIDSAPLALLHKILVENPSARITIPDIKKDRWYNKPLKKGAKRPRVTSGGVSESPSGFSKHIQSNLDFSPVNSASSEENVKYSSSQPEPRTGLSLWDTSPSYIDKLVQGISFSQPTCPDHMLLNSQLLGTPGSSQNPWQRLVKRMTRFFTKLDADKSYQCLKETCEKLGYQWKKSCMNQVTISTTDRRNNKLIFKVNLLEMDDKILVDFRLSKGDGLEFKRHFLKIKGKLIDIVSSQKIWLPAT
Sequence of SRC (human) (P12931 whole entry, looked up): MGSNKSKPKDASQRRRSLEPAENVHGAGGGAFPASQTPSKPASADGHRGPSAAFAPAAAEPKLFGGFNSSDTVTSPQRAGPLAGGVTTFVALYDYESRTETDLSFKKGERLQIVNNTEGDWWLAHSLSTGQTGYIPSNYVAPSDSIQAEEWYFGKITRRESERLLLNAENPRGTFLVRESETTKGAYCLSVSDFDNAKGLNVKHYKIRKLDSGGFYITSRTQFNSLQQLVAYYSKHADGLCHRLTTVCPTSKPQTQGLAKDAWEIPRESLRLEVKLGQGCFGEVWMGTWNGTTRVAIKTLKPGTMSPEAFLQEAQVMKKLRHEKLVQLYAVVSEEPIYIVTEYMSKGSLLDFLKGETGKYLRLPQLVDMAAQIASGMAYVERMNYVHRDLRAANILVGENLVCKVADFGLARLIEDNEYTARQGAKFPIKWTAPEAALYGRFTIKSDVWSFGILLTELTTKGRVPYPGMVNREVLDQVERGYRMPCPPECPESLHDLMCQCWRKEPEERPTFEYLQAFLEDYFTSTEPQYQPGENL
Sequence of AURKA (human) (O14965 whole entry, looked up): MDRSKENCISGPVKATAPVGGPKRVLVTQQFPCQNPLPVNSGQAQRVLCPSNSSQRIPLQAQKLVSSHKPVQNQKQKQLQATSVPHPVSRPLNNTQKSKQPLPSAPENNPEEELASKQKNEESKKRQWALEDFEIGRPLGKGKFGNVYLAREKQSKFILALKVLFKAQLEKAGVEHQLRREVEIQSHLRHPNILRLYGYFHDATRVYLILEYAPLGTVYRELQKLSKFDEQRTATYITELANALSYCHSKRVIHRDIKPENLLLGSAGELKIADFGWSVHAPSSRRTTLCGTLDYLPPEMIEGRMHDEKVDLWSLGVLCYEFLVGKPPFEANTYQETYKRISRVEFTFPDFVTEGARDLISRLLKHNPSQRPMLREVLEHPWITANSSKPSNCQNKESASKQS
Sequence of BRSK2 (human) (Q8IWQ3 whole entry, looked up): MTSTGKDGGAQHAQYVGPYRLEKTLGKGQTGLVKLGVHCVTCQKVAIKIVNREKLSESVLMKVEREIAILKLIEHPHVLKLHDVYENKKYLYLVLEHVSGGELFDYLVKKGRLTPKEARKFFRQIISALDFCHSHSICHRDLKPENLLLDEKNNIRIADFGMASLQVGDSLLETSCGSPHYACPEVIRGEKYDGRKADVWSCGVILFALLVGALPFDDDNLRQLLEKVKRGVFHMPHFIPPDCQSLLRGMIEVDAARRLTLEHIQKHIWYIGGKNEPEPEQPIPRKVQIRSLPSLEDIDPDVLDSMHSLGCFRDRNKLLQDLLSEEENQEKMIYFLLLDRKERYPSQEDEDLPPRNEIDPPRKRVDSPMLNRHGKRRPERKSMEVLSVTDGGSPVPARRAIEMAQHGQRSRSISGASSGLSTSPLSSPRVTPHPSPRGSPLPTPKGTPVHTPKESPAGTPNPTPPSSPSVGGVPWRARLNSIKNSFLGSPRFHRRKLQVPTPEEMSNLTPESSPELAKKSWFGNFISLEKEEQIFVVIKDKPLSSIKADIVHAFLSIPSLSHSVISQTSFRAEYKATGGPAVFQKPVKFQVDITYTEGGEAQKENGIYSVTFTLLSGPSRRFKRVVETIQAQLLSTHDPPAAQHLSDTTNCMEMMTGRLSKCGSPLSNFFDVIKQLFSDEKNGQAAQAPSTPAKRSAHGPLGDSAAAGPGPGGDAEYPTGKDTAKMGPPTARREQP
Sequence of PRKCZ (human) (Q05513 whole entry, looked up): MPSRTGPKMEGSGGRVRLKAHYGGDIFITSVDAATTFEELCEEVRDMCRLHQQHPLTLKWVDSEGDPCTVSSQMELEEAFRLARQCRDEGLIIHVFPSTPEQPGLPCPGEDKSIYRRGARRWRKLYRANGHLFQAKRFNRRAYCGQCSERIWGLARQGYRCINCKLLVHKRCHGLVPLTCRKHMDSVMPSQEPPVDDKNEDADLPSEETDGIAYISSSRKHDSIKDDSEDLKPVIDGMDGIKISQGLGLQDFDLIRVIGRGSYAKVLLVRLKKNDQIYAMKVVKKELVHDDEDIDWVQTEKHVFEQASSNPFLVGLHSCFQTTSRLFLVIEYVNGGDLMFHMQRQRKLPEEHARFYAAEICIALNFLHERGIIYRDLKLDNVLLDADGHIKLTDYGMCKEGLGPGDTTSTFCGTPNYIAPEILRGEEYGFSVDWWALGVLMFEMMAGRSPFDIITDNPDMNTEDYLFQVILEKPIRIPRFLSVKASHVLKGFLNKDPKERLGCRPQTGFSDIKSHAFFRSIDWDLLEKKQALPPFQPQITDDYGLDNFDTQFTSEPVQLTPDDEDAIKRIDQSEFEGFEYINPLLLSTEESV
Sequence of GCK (human) (Q12851 whole entry, looked up): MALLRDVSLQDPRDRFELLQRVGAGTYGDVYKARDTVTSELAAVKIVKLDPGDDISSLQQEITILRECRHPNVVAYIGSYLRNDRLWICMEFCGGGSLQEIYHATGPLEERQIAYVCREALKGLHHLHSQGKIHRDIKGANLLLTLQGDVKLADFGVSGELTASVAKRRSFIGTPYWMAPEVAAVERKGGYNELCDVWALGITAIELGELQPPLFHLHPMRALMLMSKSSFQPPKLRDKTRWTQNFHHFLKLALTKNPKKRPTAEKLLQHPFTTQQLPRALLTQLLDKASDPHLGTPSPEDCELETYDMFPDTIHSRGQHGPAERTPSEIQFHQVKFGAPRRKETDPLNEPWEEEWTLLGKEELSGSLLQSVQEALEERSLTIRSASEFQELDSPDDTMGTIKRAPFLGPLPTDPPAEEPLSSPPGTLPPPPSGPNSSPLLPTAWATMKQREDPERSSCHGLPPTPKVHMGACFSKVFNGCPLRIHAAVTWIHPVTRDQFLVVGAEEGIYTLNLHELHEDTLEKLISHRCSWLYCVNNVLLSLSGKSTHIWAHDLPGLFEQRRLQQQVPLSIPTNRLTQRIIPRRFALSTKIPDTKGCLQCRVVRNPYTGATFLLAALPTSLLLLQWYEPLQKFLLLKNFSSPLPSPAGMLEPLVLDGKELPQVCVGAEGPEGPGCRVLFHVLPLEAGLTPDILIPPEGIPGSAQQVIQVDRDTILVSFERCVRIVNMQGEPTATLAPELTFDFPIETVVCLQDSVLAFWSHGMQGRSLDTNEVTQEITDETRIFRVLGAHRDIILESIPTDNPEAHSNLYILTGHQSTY
Sequence of CLK2 (human) (P49760 whole entry, looked up): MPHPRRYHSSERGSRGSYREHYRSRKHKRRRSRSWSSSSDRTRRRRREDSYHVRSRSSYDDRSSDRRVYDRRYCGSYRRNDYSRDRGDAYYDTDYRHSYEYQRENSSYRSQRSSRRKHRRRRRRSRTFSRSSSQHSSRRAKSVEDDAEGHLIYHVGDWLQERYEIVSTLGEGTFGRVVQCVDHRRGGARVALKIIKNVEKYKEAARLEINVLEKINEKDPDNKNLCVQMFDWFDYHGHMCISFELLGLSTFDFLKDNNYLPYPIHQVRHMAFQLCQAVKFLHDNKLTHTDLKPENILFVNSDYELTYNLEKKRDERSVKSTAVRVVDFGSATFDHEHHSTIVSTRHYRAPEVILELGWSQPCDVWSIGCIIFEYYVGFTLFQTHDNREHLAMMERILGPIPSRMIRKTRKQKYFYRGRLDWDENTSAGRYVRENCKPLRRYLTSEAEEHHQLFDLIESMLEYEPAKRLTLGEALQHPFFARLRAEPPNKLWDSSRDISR

Molecule `COc1ccc(-n2ncc3cnc(Nc4cc(OC)c(OC)c(OCCCN5CCN(C)CC5)c4)nc32)cc1` has a residual activity (AURKA (human); compound 0.1 µM) of 18%, a residual activity (AURKA (human); compound 1.0 µM) of 3% and a residual activity (BRSK2 (human); compound 0.1 µM) of 84%. For the same molecule, the residual activity (BRSK2 (human); compound 1.0 µM) was 35%, the residual activity (CDK2 CCNA2 (human); compound 0.1 µM) was 34% and the residual activity (CDK2 CCNA2 (human); compound 1.0 µM) was 7%. For the same molecule, the residual activity (CHEK1 (human); compound 0.1 µM) was 72%, the residual activity (CHEK1 (human); compound 1.0 µM) was 20% and the residual activity (CHEK2 (human); compound 0.1 µM) was 48%. The residual activity (CHEK2 (human); compound 1.0 µM) was 12%, the residual activity (CLK2 (human); compound 0.1 µM) was 30% and the residual activity (CLK2 (human); compound 1.0 µM) was 11%. For the same molecule, the residual activity (DAPK1 (human); compound 0.1 µM) was 51%, the residual activity (DAPK1 (human); compound 1.0 µM) was 15% and the residual activity (EEF2K (human); compound 0.1 µM) was 100%. It also gave a residual activity (EEF2K (human); compound 1.0 µM) of 91%, a residual activity (EPHB4 (human); compound 0.1 µM) of 69% and a residual activity (EPHB4 (human); compound 1.0 µM) of 3%. For the same molecule, the residual activity (ERBB4 (human); compound 0.1 µM) was 60%, the residual activity (ERBB4 (human); compound 1.0 µM) was 17% and the residual activity (FLT1 (human); compound 0.1 µM) was 5%. For the same molecule, the residual activity (FLT1 (human); compound 1.0 µM) was 2%, the residual activity (GCK (human); compound 0.1 µM) was 29% and the residual activity (HIPK1 (human); compound 0.1 µM) was 44%. For the same molecule, the residual activity (HIPK1 (human); compound 1.0 µM) was 17%, the residual activity (HIPK3 (human); compound 0.1 µM) was 69% and the residual activity (HIPK3 (human); compound 1.0 µM) was 19%. For the same molecule, the residual activity (JAK2 JH1 JH2 (human); compound 0.1 µM) was 4%, the residual activity (JAK2 JH1 JH2 (human); compound 1.0 µM) was 3% and the residual activity (MAP3K1 (human); compound 0.1 µM) was 103%. The residual activity (MAP3K1 (human); compound 1.0 µM) was 92%, the residual activity (MAP3K5 (human); compound 0.1 µM) was 99% and the residual activity (MAP3K5 (human); compound 1.0 µM) was 77%. For the same molecule, the residual activity (MAPK1 (human); compound 0.1 µM) was 84%, the residual activity (MAPK1 (human); compound 1.0 µM) was 57% and the residual activity (MAPK3 (human); compound 0.1 µM) was 111%. It also gave a residual activity (MAPK3 (human); compound 1.0 µM) of 82%, a residual activity (MARK3 (human); compound 0.1 µM) of 41% and a residual activity (MARK3 (human); compound 1.0 µM) of 16%. It also gave a residual activity (MARK4 (human); compound 1.0 µM) of 24%, a residual activity (MST4 (human); compound 0.1 µM) of 90% and a residual activity (MST4 (human); compound 1.0 µM) of 67%. For the same molecule, the residual activity (NTRK1 (human); compound 0.1 µM) was 32%, the residual activity (NTRK1 (human); compound 1.0 µM) was 11% and the residual activity (NUAK1 (human); compound 0.1 µM) was 16%. It also gave a residual activity (NUAK1 (human); compound 1.0 µM) of 13%, a residual activity (PAK6 (human); compound 0.1 µM) of 62% and a residual activity (PAK6 (human); compound 1.0 µM) of 24%. It also gave a residual activity (PLK1 (human); compound 0.1 µM) of 90%, a residual activity (PLK1 (human); compound 1.0 µM) of 91% and a residual activity (PRKCA (human); compound 0.1 µM) of 95%. It also gave a residual activity (PRKCA (human); compound 1.0 µM) of 56%, a residual activity (PRKCZ (human); compound 1.0 µM) of 78% and a residual activity (RPS6KA1 KD1 KD2 (human); compound 1.0 µM) of 7%. For the same molecule, the residual activity (RPS6KA3 KD1 KD2 (human); compound 0.1 µM) was 38%, the residual activity (RPS6KA3 KD1 KD2 (human); compound 1.0 µM) was 9% and the residual activity (RPS6KA5 KD1 KD2 (human); compound 0.1 µM) was 76%. For the same molecule, the residual activity (RPS6KA5 KD1 KD2 (human); compound 1.0 µM) was 34%, the residual activity ([1]; compound 0.1 µM) was 107% and the residual activity ([1]; compound 1.0 µM) was 61%. It also gave a residual activity (SRC (human); compound 0.1 µM) of 7%, a residual activity (SRC (human); compound 1.0 µM) of 3% and a residual activity (STK3 (human); compound 0.1 µM) of 78%. For the same molecule, the residual activity (TAOK1 (human); compound 0.1 µM) was 95% and the residual activity (TAOK1 (human); compound 1.0 µM) was 74%.
`CCNc1nc(Nc2cc(F)c(C(=O)N3CCOCC3)cc2OC)ncc1C(F)(F)F` gave a residual activity (AURKA (human); compound 1.0 µM) of 97%, a residual activity (AURKA (human); compound 10.0 µM) of 55% and a residual activity (BRSK2 (human); compound 1.0 µM) of 80%. It also gave a residual activity (BRSK2 (human); compound 10.0 µM) of 38%, a residual activity (CDK2 CCNA2 (human); compound 1.0 µM) of 102% and a residual activity (CDK2 CCNA2 (human); compound 10.0 µM) of 79%. The residual activity (CHEK1 (human); compound 1.0 µM) was 44%, the residual activity (CHEK1 (human); compound 10.0 µM) was 12% and the residual activity (CHEK2 (human); compound 1.0 µM) was 12%. The residual activity (CHEK2 (human); compound 10.0 µM) was 2%, the residual activity (CLK2 (human); compound 1.0 µM) was 50% and the residual activity (CLK2 (human); compound 10.0 µM) was 9%. For the same molecule, the residual activity (DAPK1 (human); compound 1.0 µM) was 43%, the residual activity (DAPK1 (human); compound 10.0 µM) was 9% and the residual activity (EEF2K (human); compound 1.0 µM) was 116%. For the same molecule, the residual activity (EEF2K (human); compound 10.0 µM) was 107%, the residual activity (EPHB4 (human); compound 1.0 µM) was 96% and the residual activity (EPHB4 (human); compound 10.0 µM) was 87%. It also gave a residual activity (ERBB4 (human); compound 1.0 µM) of 97%, a residual activity (ERBB4 (human); compound 10.0 µM) of 70% and a residual activity (FLT1 (human); compound 1.0 µM) of 62%. The residual activity (FLT1 (human); compound 10.0 µM) was 13%, the residual activity (GCK (human); compound 1.0 µM) was 88% and the residual activity (GCK (human); compound 10.0 µM) was 28%. The residual activity (HIPK1 (human); compound 1.0 µM) was 78%, the residual activity (HIPK1 (human); compound 10.0 µM) was 35% and the residual activity (HIPK3 (human); compound 1.0 µM) was 107%. For the same molecule, the residual activity (HIPK3 (human); compound 10.0 µM) was 98%, the residual activity (JAK2 JH1 JH2 (human); compound 1.0 µM) was 72% and the residual activity (JAK2 JH1 JH2 (human); compound 10.0 µM) was 35%. For the same molecule, the residual activity (MAP3K1 (human); compound 1.0 µM) was 104%, the residual activity (MAP3K1 (human); compound 10.0 µM) was 99% and the residual activity (MAP3K5 (human); compound 1.0 µM) was 44%. The residual activity (MAP3K5 (human); compound 10.0 µM) was 10%, the residual activity (MAPK1 (human); compound 1.0 µM) was 99% and the residual activity (MAPK1 (human); compound 10.0 µM) was 71%. For the same molecule, the residual activity (MAPK3 (human); compound 1.0 µM) was 85%, the residual activity (MAPK3 (human); compound 10.0 µM) was 54% and the residual activity (MARK3 (human); compound 1.0 µM) was 80%. It also gave a residual activity (MARK3 (human); compound 10.0 µM) of 41%, a residual activity (MARK4 (human); compound 1.0 µM) of 91% and a residual activity (MARK4 (human); compound 10.0 µM) of 67%. The residual activity (MST4 (human); compound 1.0 µM) was 86%, the residual activity (MST4 (human); compound 10.0 µM) was 74% and the residual activity (NTRK1 (human); compound 1.0 µM) was 81%. It also gave a residual activity (NTRK1 (human); compound 10.0 µM) of 63%, a residual activity (NUAK1 (human); compound 1.0 µM) of 13% and a residual activity (NUAK1 (human); compound 10.0 µM) of 2%. The residual activity (PAK6 (human); compound 1.0 µM) was 107%, the residual activity (PAK6 (human); compound 10.0 µM) was 93% and the residual activity (PLK1 (human); compound 1.0 µM) was 76%. For the same molecule, the residual activity (PLK1 (human); compound 10.0 µM) was 39%, the residual activity (PRKCA (human); compound 1.0 µM) was 95% and the residual activity (PRKCA (human); compound 10.0 µM) was 97%. The residual activity (PRKCZ (human); compound 1.0 µM) was 99%, the residual activity (PRKCZ (human); compound 10.0 µM) was 83% and the residual activity (RPS6KA1 KD1 KD2 (human); compound 1.0 µM) was 21%. For the same molecule, the residual activity (RPS6KA1 KD1 KD2 (human); compound 10.0 µM) was 8%, the residual activity (RPS6KA3 KD1 KD2 (human); compound 1.0 µM) was 34% and the residual activity (RPS6KA3 KD1 KD2 (human); compound 10.0 µM) was 9%. For the same molecule, the residual activity (RPS6KA5 KD1 KD2 (human); compound 1.0 µM) was 91%, the residual activity (RPS6KA5 KD1 KD2 (human); compound 10.0 µM) was 49% and the residual activity ([1]; compound 1.0 µM) was 72%. The residual activity ([1]; compound 10.0 µM) was 59%, the residual activity (SRC (human); compound 1.0 µM) was 87% and the residual activity (SRC (human); compound 10.0 µM) was 83%. For the same molecule, the residual activity (STK3 (human); compound 1.0 µM) was 85%, the residual activity (STK3 (human); compound 10.0 µM) was 73% and the residual activity (TAOK1 (human); compound 1.0 µM) was 111%. The residual activity (TAOK1 (human); compound 10.0 µM) was 102%.
